The target of one assay is D(2) dopamine receptor (Homo sapiens, UniProt P14416). The assay can be described thus: Displacement of [3H]-raclopride from human D2L receptor expressed in HEK293 cell membranes after 1 hr by Microbeta scintillation counting method.
In assay [1] the target is 5-hydroxytryptamine receptor 7 (Homo sapiens, UniProt P34969). The experiment in a line: Displacement of [3H]-5-CT from human 5HT7BR expressed in HEK293 cell membranes after 1 hr by Microbeta scintillation counting method. In general terms: Loss of bound radioactivity is the signal in a displacement assay; it reports binding, not function.
The target in assay [2] is T1, 5-hydroxytryptamine receptor 1A (Homo sapiens, UniProt P08908).
T1 sequence (P08908 whole entry): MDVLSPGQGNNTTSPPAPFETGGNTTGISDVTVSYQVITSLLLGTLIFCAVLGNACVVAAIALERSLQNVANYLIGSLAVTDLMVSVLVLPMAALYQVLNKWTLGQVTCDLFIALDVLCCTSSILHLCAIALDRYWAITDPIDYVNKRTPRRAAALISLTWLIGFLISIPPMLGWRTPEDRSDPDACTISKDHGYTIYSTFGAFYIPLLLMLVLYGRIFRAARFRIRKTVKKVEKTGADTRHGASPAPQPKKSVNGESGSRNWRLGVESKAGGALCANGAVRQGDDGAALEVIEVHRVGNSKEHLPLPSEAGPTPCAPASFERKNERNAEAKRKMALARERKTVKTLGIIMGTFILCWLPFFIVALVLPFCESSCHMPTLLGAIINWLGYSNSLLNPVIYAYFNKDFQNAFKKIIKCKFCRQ
The experiment in a line: Displacement of [3H]-8-OH-DPAT from human 5HT1AR expressed in HEK293 cell membranes after 1 hr by Microbeta scintillation counting method.

Chain of D(2) dopamine receptor (P14416 whole entry): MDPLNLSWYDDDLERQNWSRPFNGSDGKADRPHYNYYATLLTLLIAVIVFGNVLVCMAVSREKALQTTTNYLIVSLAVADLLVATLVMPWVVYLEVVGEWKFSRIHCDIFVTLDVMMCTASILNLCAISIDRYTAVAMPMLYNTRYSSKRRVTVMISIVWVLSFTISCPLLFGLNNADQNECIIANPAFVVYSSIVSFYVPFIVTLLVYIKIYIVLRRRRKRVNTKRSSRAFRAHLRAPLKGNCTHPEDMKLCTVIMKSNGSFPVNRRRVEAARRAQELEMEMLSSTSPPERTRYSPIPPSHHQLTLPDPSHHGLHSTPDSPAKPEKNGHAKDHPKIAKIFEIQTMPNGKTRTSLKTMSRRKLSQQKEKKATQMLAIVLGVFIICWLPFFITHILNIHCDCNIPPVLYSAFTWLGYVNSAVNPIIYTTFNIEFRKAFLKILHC
Chain of 5-hydroxytryptamine receptor 7 (P34969 whole entry): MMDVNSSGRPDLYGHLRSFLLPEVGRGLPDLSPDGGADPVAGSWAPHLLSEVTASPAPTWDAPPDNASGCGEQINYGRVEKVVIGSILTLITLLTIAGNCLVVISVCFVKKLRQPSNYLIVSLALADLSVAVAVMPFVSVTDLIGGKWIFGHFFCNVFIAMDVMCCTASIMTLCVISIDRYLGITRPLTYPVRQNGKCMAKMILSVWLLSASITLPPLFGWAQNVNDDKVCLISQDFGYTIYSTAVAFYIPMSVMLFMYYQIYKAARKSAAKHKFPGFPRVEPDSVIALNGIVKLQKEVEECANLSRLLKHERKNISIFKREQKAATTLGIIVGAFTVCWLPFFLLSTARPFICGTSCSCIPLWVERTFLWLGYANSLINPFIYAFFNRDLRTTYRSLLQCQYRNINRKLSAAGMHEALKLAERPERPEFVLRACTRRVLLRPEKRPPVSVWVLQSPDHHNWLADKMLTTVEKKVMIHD

For the compound `COc1ccccc1N1CCN(CC(O)CN2C(=O)NC(C)(c3ccc(C)cc3)C2=O)CC1` (racemic), the inhibition constant (Ki) (in general, a dissociation constant, usually derived from enzyme kinetics or from competition with a known ligand) was found to be 876 nM at D(2) dopamine receptor, 50 nM in assay [1] and 184 nM in assay [2].
For `N#Cc1ccccc1N1CCN(CC(O)CN2C(=O)NC(c3ccccc3)(c3ccccc3)C2=O)CC1` (racemic), the values for the inhibition constant (Ki) (at D(2) dopamine receptor; in assay [1]; in assay [2]) were 534 nM, 1200 nM and 341 nM, respectively.
Turning to `COc1ccc(C2(C)NC(=O)N(CC(O)CN3CCN(c4ccccc4C#N)CC3)C2=O)cc1` (racemic), in assay [2], affinity was put at a Ki of 219 nM.
For `COc1ccccc1N1CCN(CC(O)CN2C(=O)NC(c3ccccc3)(c3ccccc3)C2=O)CC1` (racemic), the inhibition constant (Ki) on D(2) dopamine receptor turned out to be 497 nM; in assay [1], 566 nM; in assay [2] it was 197 nM.

(Values after ChEMBL document CHEMBL4145534, “Computer-aided insights into receptor-ligand interaction for novel 5-arylhydantoin derivatives as serotonin 5-HT7 receptor agents with antidepressant activity” (Eur J Med Chem, 2018).)
